Test results reported in PubChem BioAssay (NCI).
Values joined by “and” are separate entries in the source; they are usually repeats but may differ in a detail not shown here. Identical values can stand only once.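 Step 1: Grow cells in 96-well plates. Step 2: Expose to compound for 48 hours at 5 concentrations. Step 3: Interpolate endpoints linearly; if unreached, use highest concentration. GI50: concentration for 50% inhibition of growth. TGI: total growth inhibition.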

Experiments:
Assay in all cases: NCI tumour cell line growth inhibition, 48 h
SF-295 CNS = tested on: SF-295 CNS
HL-60(TB) leukemia = tested on: HL-60(TB) leukemia
HCT-15 colon = tested on: HCT-15 colon
MOLT-4 leukemia = tested on: MOLT-4 leukemia
SK-OV-3 ovarian = tested on: SK-OV-3 ovarian
TK-10 renal = tested on: TK-10 renal
HS 578T breast = tested on: HS 578T breast
NCI/ADR-RES ovarian = tested on: NCI/ADR-RES ovarian
MDA-MB-231 breast = tested on: MDA-MB-231 breast
HCT-116 colon = tested on: HCT-116 colon

Compound | TGI (SF-295 CNS) [µM] | TGI (HL-60(TB) leukemia) | TGI (HCT-15 colon) [µM] | TGI (MOLT-4 leukemia) [µM] | TGI (SK-OV-3 ovarian) [µM] | TGI (TK-10 renal) [µM] | TGI (HS 578T breast) [µM] | TGI (NCI/ADR-RES ovarian) [µM] | TGI (MDA-MB-231 breast) [µM] | TGI (HCT-116 colon) [µM] | GI50 (SF-295 CNS) [µM] | GI50 (HL-60(TB) leukemia) [µM] | GI50 (HCT-15 colon) [µM] | GI50 (MOLT-4 leukemia) [µM] | GI50 (SK-OV-3 ovarian) [µM] | GI50 (TK-10 renal) | GI50 (HS 578T breast) | GI50 (NCI/ADR-RES ovarian) [µM] | GI50 (MDA-MB-231 breast) [µM] | GI50 (HCT-116 colon) [µM]
COc1cc(NS(C)(=O)=O)ccc1Nc1c2ccccc2nc2c1[nH]c1ccc(NC3OC(CO)C(O)C(O)C3O)cc12 (stereo unspecified) | 0.13 | 0.282 µM | 2.14 | 3.65 | 0.299 | 0.7 | 4.29 | 45.8 | 8.11 | 1.43 |  |  |  |  |  |  |  |  |  | 
COc1c(OC[C@H](O)CN2CCOCC2)ccc2c3n(c(=NC(=O)c4cccnc4C)nc12)CCN3 | 17.2 | > 50 µM | > 50 | > 50 | 2.27 | > 50 | > 50 | > 50 | > 50 | > 50 | 0.541 | 0.0538 | 1.62 | 0.305 | 0.115 | 0.0941 µM | 0.15 µM | > 50 | > 50 | 24.2
COc1cccc2c1C(=O)c1c(O)c3c(c(O)c1C2=O)C[C@](O)(C(=O)CO)C[C@H]3O[C@@H]1C[C@@H](NC(=O)CCCCCN(C)C2(c3ccc(F)cc3)CC3CCC2C3)[C@H](O)[C@@H](C)O1 (stereo partly specified) | 13.3 | 16.1 µM | 9.11 | 2.61 | 14.7 | 1.28 | 21.6 | 50 | 2.63 | 1.51 | 5.79 | 6.59 | 2.19 | 0.304 | 7.46 | 0.611 µM | 8.26 µM | 13 | 1 | 0.729
CC(=O)OC12C=CC(=O)N1c1ccccc1C(=O)O2 (stereo unspecified) | > 100 | > 100 µM | > 100 | > 100 | > 100 | > 100 | > 100 | > 100 | > 100 | > 100 |  |  |  |  |  |  | > 100 µM | > 100 | > 100 | 
CCSc1ncnc2c1ncn2C1OC(CO)C(O)C1O (stereo unspecified) | > 43.1 | 31.1 µM | > 100 | > 87.1 | > 100 | > 100 | 34 | > 57.1 | > 100 | > 100 | 0.843 | 0.354 | 0.274 | 0.173 | 0.754 | 1.56 µM | 0.975 µM | 0.432 | 0.745 | 0.339
NCCNc1c2c(c(NCCN)c3[nH]ccc13)C(=O)c1ccccc1C2=O | 0.352 | 0.47 µM | 14.8 | 0.0437 | 5.52 | 0.682 | 0.219 | 29.6 | 0.605 | 0.401 | < 0.0341 | 0.132 | 0.845 | < 0.01 | 0.79 | 0.145 µM | 0.012 µM | 13.3 | 0.109 | < 0.0261
Cc1ccc(NC(=O)CC2CC2)cc1-c1ccc(C(=O)NCC2CC2)cc1 | > 25 | > 25 µM | > 25 | > 25 | > 25 | > 25 | > 25 | > 25 | > 25 | > 25 | > 25 | > 24.2 | > 25 | > 25 | > 25 | > 25 µM | > 25 µM | > 25 | > 25 | > 25
COc1cc2c3c(n(C)c(=O)c2cc1OC)-c1cc2c(cc1/C3=C\CN)OCO2 | 0.614 | > 100 µM | 19.8 | 0.433 |  | 32.8 | > 100 | 68.7 | > 35.4 | 0.437 |  | 0.294 | 0.778 | < 0.0208 | 0.412 | 4.04 µM | 34.9 µM | 1.21 | 5.8 | 0.0713
CNCC#Cc1c(F)ccc2c1/C(=C/c1[nH]ccc1OC)C(=O)N2 | 3.55 | 0.26 µM | 2.78 | 2.26 | 3.52 | 1.89 | 3.68 | 3.27 | 2.18 | 3.1 | 0.389 | 0.0722 | 0.0866 | 0.132 | 0.104 | 0.098 µM | 0.195 µM | 0.363 | 0.416 | 0.0827
O=C1Nc2ccccc2/C1=N\[O-].O=C1Nc2ccccc2/C1=N\[O-].[Cu+2] | > 100 | > 100 µM | > 100 | > 100 | > 100 | > 100 | > 100 | > 100 | > 100 | > 100 | > 100 | > 100 | > 100 | > 100 | > 100 | > 100 µM | > 100 µM | > 100 | > 100 | > 100
Oc1cccnc1[Se] | 97.3 | > 100 µM | > 100 | > 100 | > 100 | > 100 | > 100 | > 100 | > 100 | > 100 |  |  |  |  |  |  |  |  |  | 
COc1cc(NCc2ccc3nc(N)nc(N)c3c2C)cc(OC)c1OC (tested in a mixture with another compound) |  | 29.4 µM and 26.3 µM | 51.7 | 46.7 |  | 47.5 |  | 229 | 55.2 | 33 | 0.000372 | 0.000746 | 0.000451 |  | 0.0189 | 23.2 µM and 4.8 µM | 29 µM and 8.3 µM |  | 0.0893 | 0.000185
COc1ccc(-c2nn(-c3ccc(NC(=O)c4ccc(Cl)c(Cl)c4)cc3)cc2-c2ccncc2)cc1Cl | 2.67 | > 50 µM | > 11 | > 50 | > 50 | > 50 | 3.37 | > 50 | 2.96 | > 50 | 0.979 | 2.76 | 1.09 | 2.3 | 4.29 | > 11.1 µM | 1.05 µM | 4.12 | 0.993 | 2.5
